We go through nine compounds from patent US4405627A, “Diphenylpropylamino-pyridine compounds useful as medicines” (Italiana Schoum S.p.A., priority 1979, dated 1983).

Data set [1] deals with rabbit ileum. Kind of data set: Spontaneous motility in vitro of rabbit ileum. Also on record: species or system rabbit (New Zealand male). As to conditions: Oryctolagus cuniculus; 50% reduction of amplitude of the basal contraction; Tyrode, 37° C.; read-out: CI50 (the source's name). The procedure: The spontaneous motility of the preparations was measured by a isotonic transducer connected with a microdynamometer. Each preparation was previously left dipped for about one hour in the solution up to reach the osmotic equilibrium.
After this time the single compounds were poured in the bath in gradual doses up to notice the quite total disappearance of spontaneous activity in the organ. For sake of comparison parallel tests with papaverine were carried out.

Data set [2] concerns rabbit ileum. Briefly: BaCl2-induced contraction on isolated rabbit ileum. To be noted: Oryctolagus cuniculus; 50% reduction of the BaCl2-induced contraction; BaCl2 50 mcg/ml; read-out: CI50 (the source's name). From the text: The activity of same compounds in antagonizing the spasm as caused by BaCl2 introduced in the bath at a concentration of 50 mcg/ml one minute before each test was studied. Also for this preparation a comparison with papaverine was at last carried out.

For data set [3], the system named is guinea pig ileum. Kind of data set: Acetylcholine-induced contraction on guinea pig ileum in vitro. Also on record: species or system guinea pig (Whitish female). To be noted: for IC50: Cavia porcellus, acetylcholine 0.1 mcg/ml, Tyrode, 37° C., 3 minutes before spasmogen, read-out: CI50 (the source's name); for acetylcholine-induced contraction on guinea pig ileum: result in words. As for the experimental part:
(§1) On the guinea pig ileum, which has a minimum intrinsic motility but a remarkable sensibility to agents causing a contracture or a relaxation of the intestinal smooth muscular system, it was possible to further evaluate the spasmolytic activity of the examined substances. As spasmogenic agents acetylcholine and BaCl2 were used which were respectively added to the bath at final concentrations of 0.1 mcg/ml and 50 mcg/ml.
(§2) Ten preparations of guinea pig ileum for each compound were prepared, yet maintaining the same dose range which was used on rabbit ileum.
(§3) The contractions were measured by means of an isotonic transducer connected with a microdynamometer. Each preparation was left dipped for about 30 minutes up to reach the equilibrium.
(§4) After this time, the single doses of each substance to be examined were introduced three minutes before the spasmogenic substance which was contacted with the preparation for 1 minute. Before the subsequent dose of drug was introduced, the tested organ was allowed to recover the basal conditions and this was ascertained by using the only spasmogenic substance. The process was repeated for all the other concentrations. Afterwards the comparison with the reference spasmolytic substance having a known activity, namely papaverine, was carried out yet working in the same conditions and according to the same procedure.

A short description of data set [4]: Acute toxicity (DL50) in mouse. Format: in vivo. As to conditions: mouse, in vivo, average values with fiducial limits, 7 days observation. As for the experimental part: The determination of the lethal dose to 50% of the animals which were treated with the examined substances was obtained by using male Swiss mice averaging 22 g and by considering two administration ways: oral and intraperitoneal.
Groups of six animals of each dose were prepared which were kept under observation for 7 days and fasting since the evening before the experience.
During the observation period possible and clear changes in activity and behaviour were controlled by using the Irwin test: a behavioural outline of the treated animals was obtained with respect to other subjects which received reference drugs.
The calculation of acute toxicity was carried out by using the Litchfield and Wilcoxon procedure (J. Pharmac. Exp. Ther. 96, 99, 1949).
The acute toxicity values in mg/kg are given in table 9 in the form of average values with the relevant fiducial limits in comparison with papaverine.

The test system of the next data set is small intestine. Kind of data set: Effect on the intestinal progress of opaque meal in rat. Type of data set: in vivo, rat (Male Wistar). As to conditions: 40 minutes after opaque meal, mean of ten ± standard error, controls 81.76 ± 2.33. As for the experimental part:
Male Wistar rats weighing 150-180 g were employed subdivided in groups of ten subjects, which were maintained fasting for 18 hours before the test.
Two administration ways were considered: oral and intraperitoneal.
In the first set of tests to every group of animals each compound was orally administered in the form of an aqueous solution or suspension in gum-arabic (10% in water) 40 minutes before an opaque meal consisting of a suspension of 5% vegetable charcoal in gum-arabic (20% in water).
The animals were killed by cranial injury 40 minutes after the oral administration of the opaque meal and the small intestine was drawn. To the control group an equal volume of saline was administered in the same administration way. The second set of tests was carried out by administering intraperitoneally the compounds 30 minutes before the opaque meal. The animals were killed 40 minutes after the swallowing of the alimentary bolus and the small intestine was drawn; to the control group an equal volume of saline was injected. The total length of small intestine and the progress of opaque meal were measured in each killed animal.

Data set [5] concerns guinea pig ileum. Kind of data set: BaCl2-induced contraction on guinea pig ileum in vitro. Also on record: species or system guinea pig (Whitish female). As to conditions: for IC50: Cavia porcellus, BaCl2 50 mcg/ml, Tyrode, 37° C., 3 minutes before spasmogen, read-out: CI50 (the source's name); for BaCl2-induced contraction on guinea pig ileum: result in words. The procedure: as §1, §2, §3, §4

A further data set is described as follows: Solubility. Type of data set: physicochemical. As to conditions: saline; read-out: maximum dose consistent with the total solubility in saline.
Data set [6] concerns acetylcholine-induced chromodacryorrhea. Kind of data set: Anticholinergic activity on chromodacryorrhea from acetylcholine. Format: in vivo, rat (male Wistar). As to conditions: for Chromodacryorrhea: acetylcholine 160 mcg s.c. The procedure: (§5) In order to evaluate the possible undesirable collateral systemic effects, tests of central and peripheral anticholinergic activity were carried out by using two animal species, mouse and rat.
Another series of experiments was carried out on male Wistar rats averaging 150 g in order to point out the anticholinergic activity at the glandular level.
A first control group consisting of six animals was subcutaneously injected with 160 mcg of acetylcholine.

In data set [7] the test system is carbachol-stimulated intestinal motility. Briefly: Effect on intestinal progress in rats after excitation with carbachol. To be noted: 40 mg/kg i.p.; carbachol 30 mcg/kg i.p.; mean of ten ± standard errors; non-stimulated controls 55.7 ± 2.23, stimulated controls 77.95 ± 1.72. Format: in vivo, rat. The procedure:
Subsequently a further series of tests were carried out in order to evaluate the capability of some examined compounds in hindering the stimulating action on intestinal motility of a dose of carbachol at the concentration of 30 mcg/kg when intraperitoneally administered. Carbachol or carbamylcholine chloride is a known substance endowed with parasympathomimetic action.
The control group was given an equal volume of saline.
The survey of the data as given in tables 6 was carried out as previously described by considering the percent intestinal progress of opaque meal with respect to the total length of small intestine.

For data set [8], the system named is effects caused by Tremorin. Kind of data set: Central and peripheral anticholinergic activity in mouse after administration of Tremorin. As to all read-outs here: key: +: Presence of the effect (ptyalism, miosis, tremors); -: Lack of the effect (ptyalism, miosis, tremors). Type of data set: in vivo, mouse (Swiss male). As to conditions: Tremorin 25 mg/kg i.p.; for Tremors: central activity; for Miosis / Ptyalism: peripheral activity. As for the experimental part: as §5
In the first series of tests Swiss male mice averaging 25 g were used which were subdivided in three groups of 8 animals. […] The third, control group was given an equal volume of saline.
In watching the effects caused by Tremorin during the development of its action, beside the time for the appearance of tremors as an index of the central activity, further parameters such as ptyalism and miosis were contemplated as indexes of peripheral activity.

Structures can show the parent of a compound that is named as a salt.

With `C[n+]1cccc(NCCC(c2ccccc2)c2ccccc2)c1` [3-(3',3'-diphenylpropyl-1'-amino)-1-methylpyridinium iodide], the IC50 with rabbit ileum [1] worked out at 15 µM; in the data set with rabbit ileum [2], 14 µM; in the data set with guinea pig ileum [3], 17 µM.
Take `COc1ccc(Cc2nccc3cc(OC)c(OC)cc23)cc1OC` [Papaverine hydrochloride, reference compound]: the median lethal dose (LD50) at 168 h in [4] (ip) was 66 mg/kg; in [4] (po, os), 315 mg/kg. The IC50 was 39 µM in the data set with rabbit ileum [1], 56 µM in the data set with rabbit ileum [2], 8.5 µM in the data set on guinea pig ileum [3] and 9.2 µM in the data set on guinea pig ileum [5]. The compound also showed a Progress % in the data set with small intestine (200 mg/kg os) of 70.2 ± 2.61%.
On to `CC[n+]1cccc(NCCC(c2ccccc2)c2ccccc2)c1` [3-(3',3'-diphenylpropyl-1'-amino)-1-ethylpyridinium iodide], for which the results for the IC50 in the data set with rabbit ileum [1], with rabbit ileum [2] and with guinea pig ileum [3] were 16 µM, 35 µM and 12 µM, respectively.
`CC[n+]1ccccc1NCCC(c1ccccc1)c1ccccc1` [2-(3',3'-diphenylpropyl-1'-amino)-1-ethylpyridinium iodide]: the IC50 in the data set on rabbit ileum [1] is 18 µM; in the data set on guinea pig ileum [3] it was 6.2 µM; in the data set on guinea pig ileum [5], 3.4 µM.
`c1ccc(C(CCNc2cccnc2)c2ccccc2)cc1` [N-(3'-pyridyl)-3,3-diphenylpropylamine hydrochloride]: in the data set “Solubility”, the solubility stood at 1000 µg/mL. The Chromodacryorrhea result in [6] (50 mg/kg i.p.) was “+”. Moreover, the “effect on acetylcholine-induced chromodacryorrhea” value in data set [6] (50 mg/kg, result in words) is “do not modify the acetylcholine-induced chromodacryorrhea”. In addition, the Progress % in [7] is 49.85 ± 3.34%; in the data set with small intestine (20 mg/kg i.p.), 75.06 ± 5.94%; in the data set on small intestine (100 mg/kg os) it was 79.10 ± 5.3%. Further, the LD50 at 168 h in [4] (ip) was 340 mg/kg; in data set [4] (po, os), > 800 mg/kg. Moreover, the IC50 came to 12 µM with rabbit ileum [1], 28 µM in the data set with rabbit ileum [2], 10 µM with guinea pig ileum [3] and 6.7 µM in the data set on guinea pig ileum [5]. For the same compound, the Tremors result in data set [8] (50 mg/kg i.p.) and in data set [8] (100 mg/kg i.p.) was “-” each time. For the same compound, the figures for the Miosis result in data set [8] (50 mg/kg i.p.) and in [8] (100 mg/kg i.p.) were “+” and “-”, respectively. Moreover, the Ptyalism entry in [8] (50 mg/kg i.p.) was “+”; in data set [8] (100 mg/kg i.p.) it was “-”. Further, the “acetylcholine-induced contraction on guinea pig ileum” value with guinea pig ileum [3] was “also effective on the acetylcholine-induced contraction”. In addition, the “BaCl2-induced contraction on guinea pig ileum” value in the data set on guinea pig ileum [5] was “more active than papaverine”.
`CC[n+]1ccc(NCCC(c2ccccc2)c2ccccc2)cc1` [4-(3',3'-diphenylpropyl-1'-amino)-1-ethyl-pyridinium iodide]: the IC50 came out at 24 µM in the data set on rabbit ileum [1], 22 µM in the data set with rabbit ileum [2], 10 µM with guinea pig ileum [3] and 8.9 µM in the data set with guinea pig ileum [5].
As for `C[n+]1ccccc1NCCC(c1ccccc1)c1ccccc1` [2-(3',3'-diphenylpropyl-1'-amino)-1-methylpyridinium iodide], the LD50 at 168 h in data set [4] (po, os) was 350 mg/kg. Besides, the IC50 in the data set with rabbit ileum [1] stood at 26 µM; in the data set on rabbit ileum [2], 10 µM; in the data set with guinea pig ileum [3], 4.6 µM; with guinea pig ileum [5], 4.3 µM. In the data set on small intestine (100 mg/kg os), this compound showed a Progress % of 73.63 ± 4.33%. For the same compound, in the data set on guinea pig ileum [3], the “acetylcholine-induced contraction on guinea pig ileum” value was “also effective on the acetylcholine-induced contraction”. Also, in the data set on guinea pig ileum [5], the “BaCl2-induced contraction on guinea pig ileum” value is recorded as “more active than papaverine”.
Take `C[n+]1ccc(NCCC(c2ccccc2)c2ccccc2)cc1` [4-(3',3'-diphenylpropyl-1'-amino)-1-methyl-pyridinium iodide]: the IC50 with rabbit ileum [1] amounted to 18 µM; in the data set on rabbit ileum [2], 14 µM; with guinea pig ileum [3] it was 16 µM.
For `CN1[C@@H]2CC[C@H]1C[C@@H](OC(=O)C(CO)c1ccccc1)C2` (stereo partly shown) [Atropine sulfate, reference compound], the Chromodacryorrhea result in [6] (1 mg/kg i.p.) was “-”. In [8] (60 mg/kg i.p.), the Tremors entry is “-”, the Miosis result is “-” and the Ptyalism entry was “-”.

The LD50 is the dose expected to kill half of the subjects tested. Lower therefore signals a more toxic substance. By solubility is commonly meant how much of the substance goes into solution per volume.
